Test results taken from patent US20200147028A1, “TREATMENT OF RESPIRATORY INFECTION WITH A TLR2 AGONIST” (Ena Therapeutics Pty Ltd, priority 2017, published 2020).
“Also recorded” adds a separate entry of the source.

How the values were obtained:
[1] = set-up: species or system BALB/c mice; conditions: mouse, in vivo
Source text: Each group contained 5 mice.

CXCL1 [2] = test: Mouse RV1B infection with fluticasone propionate: CXCL1 in BAL by ELISA; type: in vivo, BALB/c mice; conditions: 2 pmol INNA-006, with or without FP; day 2 p.i.
TNF-α = test: Mouse RV1B infection with fluticasone propionate: TNF-α in BAL by ELISA; type: in vivo, BALB/c mice
[3] = tested on: other TLR pattern recognition receptors; test: TLR panel NF-κB SEAP reporter in HEK293 cells: other TLRs; type: cell-based; conditions: human and mouse TLR panels
Protocol: (§1) INNA-006 was assessed for its ability to activate a range of other TLR pattern recognition receptors. These assessments were conducted using both human and mouse TLR panels. These assays detect a secreted embryonic alkaline phosphatase (SEAP) reporter under the control of a promoter which is inducible by NF-κB activation in HEK293 cells. The secreted embryonic alkaline phosphatase (SEAP) reporter is under the control of a promoter inducible by the transcription factor NF-κB. This reporter gene allows the monitoring of signaling through the TLR, based on the activation of NF-κB. In a 96-well plate (200 μL total volume) containing the appropriate cells (50,000-75,000 cells/well), 20 μL of the test article or the positive control ligand is added to the wells. The media added to the wells is designed for the detection of NF-κB induced SEAP expression. After a 16-24 hr incubation the optical density (OD) is read at 650 nm on a Molecular Devices SpectraMax 340PC absorbance detector.

BAL inflammatory cells [4] = test: Mouse RV1B infection model: BAL cell analysis
TNFα = test: Mouse RV1B infection model: TNFα in BAL by ELISA
CXCL1 [5] = test: Mouse RV1B infection model: CXCL1 in BAL by ELISA
[6] = tested on: Rhinovirus serotype 1B (RV1B); test: Mouse RV1B infection model: lung viral RNA by qPCR; conditions: for lung viral load: day +1
TLR-2 = TLR-2 (Homo sapiens, UniProt O60603); test: TLR panel NF-κB SEAP reporter in HEK293 cells: TLR-2; type: cell-based; set-up: expressed in transfected cells; host or cells: HEK293; conditions: human and mouse TLR panels, FIG. 21
Chain of TLR-2 (O60603 21-784): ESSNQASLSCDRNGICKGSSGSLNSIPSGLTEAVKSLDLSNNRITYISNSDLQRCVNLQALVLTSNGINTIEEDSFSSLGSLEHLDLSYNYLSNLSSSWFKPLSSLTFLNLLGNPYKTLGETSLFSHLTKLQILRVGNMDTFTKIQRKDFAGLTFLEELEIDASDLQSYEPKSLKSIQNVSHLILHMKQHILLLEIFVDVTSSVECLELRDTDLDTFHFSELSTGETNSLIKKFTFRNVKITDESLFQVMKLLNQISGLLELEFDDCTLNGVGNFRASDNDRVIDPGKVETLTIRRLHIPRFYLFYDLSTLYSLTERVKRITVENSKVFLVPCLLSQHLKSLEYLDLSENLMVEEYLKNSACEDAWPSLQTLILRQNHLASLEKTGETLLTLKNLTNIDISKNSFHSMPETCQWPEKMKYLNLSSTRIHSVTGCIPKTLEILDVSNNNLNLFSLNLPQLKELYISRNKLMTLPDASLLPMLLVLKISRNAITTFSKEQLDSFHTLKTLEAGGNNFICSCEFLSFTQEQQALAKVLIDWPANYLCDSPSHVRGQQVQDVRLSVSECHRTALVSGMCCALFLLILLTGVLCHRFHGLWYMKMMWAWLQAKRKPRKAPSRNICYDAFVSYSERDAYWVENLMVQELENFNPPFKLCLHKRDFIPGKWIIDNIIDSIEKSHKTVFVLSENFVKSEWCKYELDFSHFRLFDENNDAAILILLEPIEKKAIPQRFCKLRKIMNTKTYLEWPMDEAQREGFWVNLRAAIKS
Chain of TLR-2 (Q9Y2C9 32-796 partner): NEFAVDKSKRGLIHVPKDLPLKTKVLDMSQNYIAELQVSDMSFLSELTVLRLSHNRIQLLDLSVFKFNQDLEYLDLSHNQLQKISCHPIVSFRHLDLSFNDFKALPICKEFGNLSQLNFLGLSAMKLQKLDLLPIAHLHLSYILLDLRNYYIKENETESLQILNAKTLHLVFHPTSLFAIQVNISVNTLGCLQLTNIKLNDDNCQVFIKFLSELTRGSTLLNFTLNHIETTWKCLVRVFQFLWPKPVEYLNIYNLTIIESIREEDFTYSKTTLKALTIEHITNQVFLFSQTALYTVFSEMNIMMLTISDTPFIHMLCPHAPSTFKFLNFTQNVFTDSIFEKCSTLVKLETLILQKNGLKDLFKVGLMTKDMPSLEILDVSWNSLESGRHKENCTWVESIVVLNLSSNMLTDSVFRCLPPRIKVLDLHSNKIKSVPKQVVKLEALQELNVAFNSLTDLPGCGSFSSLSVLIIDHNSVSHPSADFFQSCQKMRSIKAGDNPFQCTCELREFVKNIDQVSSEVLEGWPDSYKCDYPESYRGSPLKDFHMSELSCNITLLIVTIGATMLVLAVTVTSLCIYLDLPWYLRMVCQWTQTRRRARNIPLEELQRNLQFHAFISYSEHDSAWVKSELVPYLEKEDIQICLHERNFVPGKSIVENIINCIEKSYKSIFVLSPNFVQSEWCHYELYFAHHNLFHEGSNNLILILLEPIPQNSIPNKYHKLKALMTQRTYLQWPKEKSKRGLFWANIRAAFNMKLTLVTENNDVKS
Protocol: as §1

BAL inflammatory cells [7] = test: Mouse RV1B infection with fluticasone propionate: BAL cell analysis
RV1B = RV1B infection of ALI-differentiated BCi-NS1 cells: viral RNA by qPCR; conditions: 20 nM and 2 nM pre-treatment 24 h; 96 h post infection; vs control
[8] = tested on: Rhinovirus serotype 1B (RV1B); test: Mouse RV1B infection with fluticasone propionate: lung viral RNA by qPCR
[9] = Study 1G: lowest doses (2 pmole and 1 pmole) day +1, listed as Peg-S-Pam2Cys

weight loss [1]: weight loss at the higher doses
weight loss after second dose [1]: no weight loss observed
Structure (SMILES): CCC(=O)OCC(CSCC(N)C(=O)NC(CO)C(=O)NCCOCC(=O)NCC(N)=O)OC(=O)CC (stereo not drawn) [INNA-006, Pam2Cys-Ser-PEG]
CXCL1 in BAL (CXCL1 [2]): neutrophil chemokine production supressed; also recorded: supressed CXCL1 production; also recorded: drastically reduced levels of mouse neutrophil chemokine CXCL1; also recorded: highly effective at suppressing CXCL1 expression
TNF-α in BAL (TNF-α; repeated doses (D-7 & D-1)): not observed
TNF-α in BAL (TNF-α; single 2 pmol dose seven days prior to infection): significant TNF-α production in BAL
activation of other TLRs (SEAP reporter) [3]: no activation of any other TLR tested
RV-induced BAL neutrophilic inflammation (BAL inflammatory cells [4]; Study 1E: day −7, day 2 p.i., listed as Peg-S-Pam2Cys): reduced RV-induced BAL neutrophilic inflammation; also recorded: reduced RV-induced neutrohillic inflammation; also recorded: significantly reduced neutrophilic inflammation
BAL macrophages (BAL inflammatory cells [4]; Study 1F: 2 pmol day −7, mock): higher numbers of macrophages compared to its saline mock control group
BAL lymphocytes (BAL inflammatory cells [4]; Study 1F: 2 pmol, day −7, day −1 or both): promoted lymphocyte recruitment in the BAL
total BAL leukocytes in RV1B infected mice (BAL inflammatory cells [4]; Study 1F: 2 pmol, vs Saline RV): did not induce significantly higher leukocyte recruitment
total BAL leukocytes in mock infected mice (BAL inflammatory cells [4]; Study 1F: 2 pmol, vs Saline mock): Total leukocytes were increased
neutrophilic response in uninfected mice (BAL inflammatory cells [4]; Study 1F: three days after dosing (d-1 groups)): not Peg-S-Pam2Cys
BAL lymphocytes (BAL inflammatory cells [4]; Study 1G: day +1 treatment): no changes to lymphocyte numbers
BAL macrophages (BAL inflammatory cells [4]; Study 1G: day +1 treatment): significantly reducing macrophage numbers
total BAL leucocyte numbers (BAL inflammatory cells [4]; Study 1G: day +1 treatment): no significant differences
BAL neutrophils (BAL inflammatory cells [4]; Study 1G: day +1 treatment, listed as Peg-S-Pam2Cys): drastically increases neutrophil numbers in BAL; also recorded: increasing neutrophil recruitment
TNF-α in BAL (TNFα; Study 1E: day −7, listed as Peg-S-Pam2Cys): not increased by any of the compounds; also recorded: lack of induction of TNFα
TNF-α in BAL (TNFα; Study 1F: 2 pmol, all groups): did not induce TNF-α in any of the groups
TNF-α in BAL (TNFα; Study 1G: 10-1 pmol day +1): dose dependent upon drug treatment
TNF-α in BAL (TNFα; [9]): not increased by the lowest doses; also recorded: no significant increase in KC or TNFα
RV-induced expression of CXCL1 (CXCL1 [5]; Study 1E(ii): INNA-011 and INNA-006 comparison, day −7): reduced RV-induced expression of CXCL1
CXCL1 in BAL (CXCL1 [5]; Study 1E: 10 pmol and 5 pmol dose day −7): effectively reduced CXCL1 levels
CXCL1 in BAL (CXCL1 [5]; Study 1F: 2 pmol day −1, RV1B, listed as Peg-S-Pam2Cys): CXCL1 production was only increased; also recorded: significantly increased in mice treated one day prior to infection
CXCL1 / lung inflammation after day −1 dose with prior day −7 dose (CXCL1 [5]; Study 1F: 2 pmol day −7 and day −1, listed as Peg-S-Pam2Cys): protected from lung inflammation; also recorded: completely abolished
CXCL1 in BAL (CXCL1 [5]; Study 1G: 10-1 pmol day +1): dose dependent upon drug treatment
CXCL1 (KC) in BAL (CXCL1 [5]; [9]): not increased by the lowest doses; also recorded: no significant increase in KC or TNFα
reduction of RV infection (lung RV copy number) ([6]; Study 1E: 10 pmol day −7): 86.76%
anti-viral efficacy relative to Pam2CysSK4 ([6]; Study 1E: 10 pmol dose day −7, listed as Peg-S-Pam2Cys): better anti-viral efficacy compared to Pam2CysSK4
dose dependence of RV suppression ([6]; Study 1E: 1-10 pmol day −7): appeared to be dose dependant
RV copy number in lung ([6]; Study 1E: every dose 1-10 pmol day −7, day 2 p.i.): significant reduction in RV infection
viral clearance, day −7 + day −1 versus day −7 only ([6]; Study 1F: 2 pmol): enhanced viral clearance compared to mice dose only on day 7
reduced viral RNA ([6]; Study 1F: single treatment at day −7): 70%
reduction in viral RNA ([6]; Study 1F: treatment at both days −7 and −1): approx. 90%
RV copy numbers in lung ([6]; Study 1G: 10, 5, 2, 1 pmol 1 day post-infection, day 2 p.i.): reduces RV1B copy numbers in the lung
lung viral load ([6]; Study 1G: doses 5 pmole per mouse and lower): significant reduction in lung viral load
lung viral load ([6]; Study 1G: highest dose 10 pmole per mouse): less effective and not significant
activation of TLR-2 (SEAP reporter) (TLR-2): able to activate its proposed target (TLR-2)
RV-induced, steroid resistant neutrophilic inflammation (BAL inflammatory cells [7]; 2 pmol, all treatment protocols, with or without FP): prevented RV-induced and steroid resistant neutrophilic inflammation; also recorded: completely ameliorated RV-induced and steroid resistant neutrophilic inflammatory response; also recorded: complete suppression of RV-induced steroid resistant neutrophilic inflammation
BAL macrophages and lymphocytes (BAL inflammatory cells [7]; D-7 INNA-006 2 pmol with FP): increased macrophages and lymphocytes when given in conjunction with FP
BAL macrophages and lymphocytes (BAL inflammatory cells [7]; combined D-7 & D-1 INNA-006 2 pmol): increased macrophages and lymphocytes in BAL
BAL macrophages (BAL inflammatory cells [7]; combined D-7 & D-1 INNA-006 in FP treated mice): Increased Macrophages
total BAL leukocyte numbers (BAL inflammatory cells [7]; repeated 2 pmol INNA-006 (day −7 & day −1)): increased total leukocyte numbers
reduction of viral RNA levels (RV1B): approximately 50%
viral lung load ([8]; 2 pmol INNA-006, both treatment protocols, all groups): reduced virus lung load in all groups; also recorded: significant reduction in viral load with both treatment protocols
viral lung load / antiviral efficacy ([8]; repeated INNA-006 (D-7 & D-1) with FP): antiviral efficacy of repeated INNA-006 treatment was enhanced by FP; also recorded: best suppression of viral lung RNA
